15 compounds from US9834542B2, “LXR modulators” (BRISTOL-MYERS SQUIBB COMPANY, priority 2013, dated 2017) can be followed below.

The target in this test is T1, LXRβ (Homo sapiens, UniProt P55055).
T1 construct: Co-transfection expression plasmids, comprising full-length LXRα (pCMX-h LXRα[…] or LXRβ (pCMX-hLXRβ)); expressed in transfected cells; host or cells: CV-1 African Green Monkey Kidney Cells
T1 sequence (P55055 1-460): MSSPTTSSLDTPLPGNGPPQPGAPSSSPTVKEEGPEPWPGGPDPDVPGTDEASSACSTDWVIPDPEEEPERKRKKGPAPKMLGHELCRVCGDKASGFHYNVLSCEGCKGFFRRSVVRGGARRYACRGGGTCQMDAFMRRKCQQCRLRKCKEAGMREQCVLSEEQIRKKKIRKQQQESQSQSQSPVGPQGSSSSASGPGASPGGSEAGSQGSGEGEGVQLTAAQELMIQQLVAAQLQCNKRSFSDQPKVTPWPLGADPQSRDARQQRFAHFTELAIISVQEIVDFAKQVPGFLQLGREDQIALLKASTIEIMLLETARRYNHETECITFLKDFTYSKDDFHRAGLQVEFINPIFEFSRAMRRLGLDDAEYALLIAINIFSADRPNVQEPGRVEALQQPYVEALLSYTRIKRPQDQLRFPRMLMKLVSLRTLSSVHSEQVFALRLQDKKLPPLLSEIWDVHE
T1 sequence (P19793 1-462 partner): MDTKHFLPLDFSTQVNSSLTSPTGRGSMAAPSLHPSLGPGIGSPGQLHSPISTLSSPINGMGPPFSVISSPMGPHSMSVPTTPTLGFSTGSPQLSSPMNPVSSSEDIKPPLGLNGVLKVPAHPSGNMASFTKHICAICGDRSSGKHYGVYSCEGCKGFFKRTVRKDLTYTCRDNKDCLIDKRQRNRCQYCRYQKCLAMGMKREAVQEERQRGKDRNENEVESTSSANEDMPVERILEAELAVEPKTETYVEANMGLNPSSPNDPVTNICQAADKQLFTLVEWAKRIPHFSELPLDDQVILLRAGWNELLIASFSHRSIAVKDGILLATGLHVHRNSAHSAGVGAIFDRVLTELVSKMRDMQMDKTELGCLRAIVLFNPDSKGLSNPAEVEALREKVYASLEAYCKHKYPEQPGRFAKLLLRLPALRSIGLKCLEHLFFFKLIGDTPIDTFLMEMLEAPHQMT
Description: Co-transfection assay (LXRE luciferase reporter), LXRβ. It is filed as cell-based. Conditions: for EC50: CV-1 cells transfected with pCMX-hLXRβ and LXREx1-Tk-Luciferase, 20 hours incubation; for Emax: LXRβ co-transfection, relative to high control 1-(2,4-difluorobenzyl)-2-oxo-6-(4-phenoxyphenyl)-4-(trifluoromethyl)-1,2-dihydropyridine-3-carbonitrile, read-out: % Efficacy. In a few lines: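 Cell-based LXRβ agonism measured as LXRE-luciferase induction in transiently transfected CV-1 cells after 20 h treatment. Potency is the curve-fit EC50; efficacy is expressed as percent of a full-agonist control's maximal response.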
Background: In a reporter assay the amount or activity of a reporter protein is the signal.

Each structure is given as a SMILES string.

For the compound `Cc1nc(C(F)(F)F)cn1-c1ccc(-c2cccc(S(C)(=O)=O)c2)cc1-n1nncc1C(O)(c1ccc(Cl)cc1)C(F)(F)F` (stereo not drawn) [Example 11, 1-(4-chlorophenyl)-2,2,2-trifluoro-1-(1-{3′-(methylsulfonyl)-4-[2-methyl-4-(trifluoromethyl)-1H-imidazol-1-yl]biphenyl-3-yl}-1H-1,2,3-triazol-5-yl) ethanol], the midpoint of the response, the EC50, lay at 332 nM and the Emax came out at 79%.

As for `Cc1nc(-c2cc(-c3cccc(S(=O)(=O)C4CC4)c3)ccc2-n2cc(C(F)(F)F)nc2C)c(-c2ccc3c(c2)OC(F)(F)O3)o1` [Example 416], the EC50 was 30 nM and the Emax is 76%.

With `Cc1nc(C(F)(F)C(C)C)cn1-c1ccc(-c2cc(F)c(CO)c(S(C)(=O)=O)c2)cc1-n1nncc1-c1ccc(OC(F)(F)F)cc1` [Example 221, (4′-(4-(1,1-difluoro-2-methylpropyl)-2-methyl-1H-imidazol-1-yl)-3-fluoro-5-(methylsulfonyl)-3′-(5-(4-(trifluoromethoxy)phenyl)-1H-1,2,3-triazol-1-yl)-[1,1′-biphenyl]-4-yl)methanol], the EC50 came to 111 nM and the Emax was found to be 69%.

In the case of `Cc1nc(C(F)F)cn1-c1ccc(-c2cccc(S(C)(=O)=O)c2)cc1-n1nncc1-c1ccc(Cl)cc1` [Example 162, 5-(4-chlorophenyl)-1-{4-[4-(difluoromethyl)-2-methyl-1H-imidazol-1-yl]-3′-(methylsulfonyl)biphenyl-3-yl}-1H-1,2,3-triazole], the response was half-maximal at 977 nM (EC50) and the Emax was determined as 65%.

Consider `CCOc1ncc(-c2oc(C)nc2-c2cc(-c3cccc(S(C)(=O)=O)c3)ccc2-n2cc(C(F)(F)F)nc2C)cc1F` [Example 471, 5-(6-ethoxy-5-fluoropyridin-3-yl)-2-methyl-4-(4-(2-methyl-4-(trifluoromethyl)-1H-imidazol-1-yl)-3′-(methylsulfonyl)biphenyl-3-yl)oxazole], for which the response was half-maximal at 201 nM (EC50) and the Emax came to 45%.

For `CS(=O)(=O)c1cccc(-c2cc(Cl)c(-n3cnc(C(F)(F)F)c3)c(-n3nncc3-c3ccc(Cl)cc3)c2)c1` [Example 7, 1-(5-chloro-3′-(methylsulfonyl)-4-(4-(trifluoromethyl)-1H-imidazol-1-yl)biphenyl-3-yl)-5-(4-chlorophenyl)-1H-1,2,3-triazole], a half-maximal effect (EC50) was put at 408 nM and the Emax came out at 55%.

On to `CCC(F)(F)c1cn(-c2ccc(-c3cccc(S(N)(=O)=O)c3)cc2-n2nncc2-c2ccc(OC(F)(F)F)cc2)c(C)n1` [Example 183, 4′-[4-(1,1-difluoropropyl)-2-methyl-1H-imidazol-1-yl]-3′-(5-{4-[(trifluoromethyl)oxy]phenyl}-1H-1,2,3-triazol-1-yl)biphenyl-3-sulfonamide], for which the EC50 worked out at 1480 nM and the Emax is 74%.

With `COCc1c(F)cc(-c2ccc(-n3cc(C(C)(F)F)nc3C)c(-n3nncc3-c3ccc(OC(F)(F)F)cc3)c2)cc1S(C)(=O)=O` [Example 179, 1-{4-[4-(1,1-difluoroethyl)-2-methyl-1H-imidazol-1-yl]-3′-fluoro-4′-[(methyloxy)methyl]-5′-(methylsulfonyl)biphenyl-3-yl}-5-{4-[(trifluoromethyl)oxy]phenyl}-1H-1,2,3-triazole], the midpoint of the response, the EC50, lay at 620 nM and the Emax stood at 105%.

As for `Cc1nc(C(F)(F)F)cn1-c1c(F)cc(-c2cccc(S(=O)(=O)NCCO)c2)cc1-n1nncc1-c1ccc(OC(F)(F)F)cc1` [Example 208, 3′-fluoro-N-(2-hydroxyethyl)-4′-[2-methyl-4-(trifluoromethyl)-1H-imidazol-1-yl]-5′-(5-{4-[(trifluoromethyl)oxy]phenyl}-1H-1,2,3-triazol-1-yl)biphenyl-3-sulfonamide], the EC50 was 1270 nM and the Emax was determined as 77%.

With `Cc1nc(-c2cc(-c3cc(F)c(CO)c(S(C)(=O)=O)c3)ccc2-n2cc(C(C)(C)O)nc2C)c(-c2ccc3c(c2)OC(F)(F)O3)o1` [Example 370, 2-(1-(3-(5-(2,2-difluorobenzo[d][1,3]dioxol-5-yl)-2-methyloxazol-4-yl)-3′-fluoro-4′-(hydroxymethyl)-5′-(methylsulfonyl)biphenyl-4-yl)-2-methyl-1H-imidazol-4-yl)propan-2-ol], the EC50 worked out at 1040 nM and the Emax was 26%.

For the compound `Cc1nc(-c2cc(-c3cc(F)c(CO)c(S(C)(=O)=O)c3)ccc2-n2cc(C(F)(F)F)nc2C)c(-c2cccc(OC(F)(F)F)c2)o1` [Example 545, (3-fluoro-4′-(2-methyl-4-(trifluoromethyl)-1H-imidazol-1-yl)-3′-(2-methyl-5-(3-(trifluoromethoxy)phenyl)oxazol-4-yl)-5-(methylsulfonyl)-[1,1′-biphenyl]-4-yl)methanol], the response was half-maximal at 38 nM (EC50) and the Emax was determined as 32%.

As to `Cc1nc(-c2cc(-c3cc(F)c(CO)c(S(C)(=O)=O)c3)ccc2-n2cc(C(F)(F)F)nc2C)c(-c2cccnc2OC(F)F)o1` [Example 389, (3′-(5-(2-(difluoromethoxy)pyridin-3-yl)-2-methyloxazol-4-yl)-3-fluoro-4′-(2-methyl-4-(trifluoromethyl)-1H-imidazol-1-yl)-5-(methylsulfonyl)biphenyl-4-yl)methanol], the EC50 amounted to 239 nM and the Emax worked out at 39%.

As to `Cc1nc(-c2ccc(Cl)cc2)c(-c2cc(-c3cc(F)c(CO)c(S(C)(=O)=O)c3)ccc2-n2cc(C(F)(F)F)nc2C)o1` [Example 606, (3′-(4-(4-chlorophenyl)-2-methyloxazol-5-yl)-3-fluoro-4′-(2-methyl-4-(trifluoromethyl)-1H-imidazol-1-yl)-5-(methylsulfonyl)-[1,1′-biphenyl]-4-yl)methanol], it took 52 nM to reach a half-maximal effect (EC50) and the Emax came to 79%.

Turning to `Cc1nc(C(F)(F)F)cn1-c1ccc(-c2ccc(CO)c(S(C)(=O)=O)c2)cc1-c1nc(CC(C)C)oc1-c1ccc(OC(F)(F)F)cc1` [Example 563, (3′-(2-isobutyl-5-(4-(trifluoromethoxy)phenyl)oxazol-4-yl)-4′-(2-methyl-4-(trifluoromethyl)-1H-imidazol-1-yl)-3-(methylsulfonyl)-[1,1′-biphenyl]-4-yl)methanol], the EC50 was 13 nM and the Emax turned out to be 70%.

Regarding `CCC(F)(F)c1cn(-c2ccc(-c3cc(F)c(CO)c(S(C)(=O)=O)c3)cc2-c2ocnc2-c2ccc(OC(F)(F)F)cc2)c(C)n1` [Example 363, {4′-[4-(1,1-difluoropropyl)-2-methyl-1H-imidazol-1-yl]-3-fluoro-5-(methylsulfonyl)-3′-(4-{4-[(trifluoromethyl)oxy]phenyl}-1,3-oxazol-5-yl)biphenyl-4-yl}methanol], the EC50 was 288 nM and the Emax was 58%.

What is called EC50 is the midpoint of the concentration-response curve.
